# Reference: patent US20250320202A1, “PRMT5 INHIBITOR, PREPARATION METHOD THEREFOR, AND PHARMACEUTICAL USE THEREOF” (Abbisko Therapeutics Co., Ltd., priority 2022, published 2025)
# Legend:
# [1] = test system: HCT116 MTAP wild-type cells; test: Human colon cancer HCT116 cell proliferation inhibition test (CellTiter-Glo, 6 days), MTAP wild-type cells; type: cell-based; conditions: HCT-116, 144 h
# Protocol: (§1) 1. HCT116 MTAP knockout and MTAP wild-type cells were plated in 96-well flat bottom plates, and cultured overnight with McCoy's 5A medium containing 10% fetal bovine serum+1% penicillin-streptomycin at 37° C. and 5% CO2.
# (§2) 2. On the next day, the compound was dissolved with DMSO, diluted with DMSO and medium successively and transferred to the cell plate. The final concentration of the compound was 10 μM, the compound was diluted 4 times, with 9 concentration gradients, and DMSO control was added.
# (§3) 3. Cells that have not been treated with the compound were removed. CellTiter-Glo Luminescent Cell Viability Assay (Promega) was used to detect cell viability, the operation was performed with reference to the package insert of the kit, and then the cell plate was placed on EnVision Multilabel Reader to detect the cold light signal.
# (§4) 4. Meanwhile, the cell plate treated with the compound was cultured at 37° C. and 5% CO2 for 6 consecutive days.
# (§5) 5. Then, CellTiter-Glo was also used to detect cell viability.
# (§6) 6. Finally, the four-parameter dose-response curve module of GraphPad Prism v 9.2.0 software was used to plot the dose-response curve and calculate the IC50 for proliferation inhibition (unit: nM).
# [2] = test system: HCT116 MTAP knockout cells; test: Human colon cancer HCT116 cell proliferation inhibition test (CellTiter-Glo, 6 days), MTAP knockout cells; type: cell-based; conditions: HCT-116, 144 h
# Protocol: as §1, §2, §3, §4, §5, §6
IC50 [1] [nM],IC50 [2] [nM],SMILES
708,8,"Cn1cc(N(C(=O)c2ccc3nc(N)c4ccncc4c3c2)C2COc3cc(C(F)(F)F)ccc32)cn1 (stereo not drawn) [Example 133, 5-amino-N-(1-methyl-1H-pyrazol-4-yl)-N-(6-(trifluoromethyl)-2,3-dihydrobenzofuran-3-yl)benzo[c][2,6]naphthyridin-9-carboxamide]"
335,17,"Cn1cc(N(C(=O)c2cc3c4c(c(N)nc3cc2F)COC4)C2CCc3nc(C(F)(F)F)ccc32)cn1 (stereo not drawn) [Example 160, 4-amino-7-fluoro-N-(1-methyl-1H-pyrazol-4-yl)-N-(2-(trifluoromethyl)-6,7-dihydro-5H-cyclopenta[b]pyridin-5-yl)-1,3-dihydrofuro[3,4-c]quinolin-8-carboxamide]"
2510,35,"Cn1cc(N(C(=O)c2ccc3nc(N)c4c(cnn4C)c3c2)C2COc3cc(C(F)(F)F)ccc32)cn1 (stereo not drawn) [Example 165, 4-amino-3-methyl-N-(1-methyl-1H-pyrazol-4-yl)-N-(6-(trifluoromethyl)-2,3-dihydrobenzofuran-3-yl)-3H-pyrazolo[3,4-c]quinolin-8-carboxamide]"
276,0.3,"Cn1ccc(N(C(=O)c2cc3c(cc2F)nc(N)c2cnn(C)c23)C2CCc3cc(C(F)(F)F)ccc32)n1 (stereo not drawn) [Example 168, 4-amino-7-fluoro-1-methyl-N-(1-methyl-1H-pyrazol-3-yl)-N-(5-(trifluoromethyl)-2,3-dihydro-1H-inden-1-yl)-1H-pyrazolo[4,3-c]quinolin-8-carboxamide]"
> 10000,> 10000,"Cn1ncc2c(N)nc3cc(O)c(C(=O)N(c4nccs4)[C@@H]4CCc5cc(C(F)(F)F)ccc54)cc3c21 [Example 184, (R)-4-amino-7-hydroxy-1-methyl-N-(thiazol-2-yl)-N-(5-(trifluoromethyl)-2,3-dihydro-1H-inden-1-yl)-1H-pyrazolo[4,3-c]quinolin-8-carboxamide]"
1260,28,"Cn1ncc2c(N)nc3cc(F)c(C(=O)N(CC(F)(F)F)[C@@H]4COc5cc(C(F)(F)F)ccc54)cc3c21 [Example 185, (S)-4-amino-7-fluoro-1-methyl-N-(2,2,2-trifluoroethyl)-N-(6-(trifluoromethyl)-2,3-dihydrobenzofuran-3-yl)-1H-pyrazolo[4,3-c]quinolin-8-carboxamide]"
> 10000,506,"Cn1ncc2c(N)nc3cc(F)c(C(=O)N(CC(F)(F)F)[C@H]4COc5cc(C(F)(F)F)ccc54)cc3c21 [Example 186, (R)-4-amino-7-fluoro-1-methyl-N-(2,2,2-trifluoroethyl)-N-(6-(trifluoromethyl)-2,3-dihydrobenzofuran-3-yl)-1H-pyrazolo[4,3-c]quinolin-8-carboxamide]"
2440,50,"Cn1cc(N(C(=O)c2ccc3nc(N)c4c(cnn4C)c3c2)[C@@H]2COc3cc(C(F)(F)F)ccc32)cn1 [Example 187, (S)-4-amino-3-methyl-N-(1-methyl-1H-pyrazol-4-yl)-N-(6-(trifluoromethyl)-2,3-dihydrobenzofuran-3-yl)-3H-pyrazolo[3,4-c]quinolin-8-carboxamide]"
> 10000,2640,"Cn1cc(N(C(=O)c2ccc3nc(N)c4c(cnn4C)c3c2)[C@H]2COc3cc(C(F)(F)F)ccc32)cn1 [Example 188, (R)-4-amino-3-methyl-N-(1-methyl-1H-pyrazol-4-yl)-N-(6-(trifluoromethyl)-2,3-dihydrobenzofuran-3-yl)-3H-pyrazolo[3,4-c]quinolin-8-carboxamide]"
9090,452,"Nc1nc2ccc(C(=O)N(CC3CC3)[C@H]3COc4cc(C(F)(F)F)ccc43)cc2c2cnccc12 [Example 193, (R)-5-amino-N-(cyclopropylmethyl)-N-(6-(trifluoromethyl)-2,3-dihydrobenzofuran-3-yl)benzo[c][2,6]naphthyridin-9-carboxamide]"
423,8.6,"Nc1nc2ccc(C(=O)N(CC3CC3)[C@@H]3COc4nc(C(F)(F)F)ccc43)cc2c2cnccc12 [Example 195, (S)-5-amino-N-(cyclopropylmethyl)-N-(6-(trifluoromethyl)-2,3-dihydrofuro[2,3-b]pyridin-3-yl)benzo[c][2,6]naphthyridin-9-carboxamide]"
264,0.9,"Cn1ccc(N(C(=O)c2cc3c(cc2F)nc(N)c2cnn(C)c23)[C@@H]2CCc3cc(C(F)(F)F)ccc32)n1 [Example 197, (R)-4-amino-7-fluoro-1-methyl-N-(1-methyl-1H-pyrazol-3-yl)-N-(5-(trifluoromethyl)-2,3-dihydro-1H-inden-1-yl)-1H-pyrazolo[4,3-c]quinolin-8-carboxamide]"
78,2,"Cn1cc(N(C(=O)c2cc3c4c(c(N)nc3cc2F)COC4)[C@@H]2COc3cc(C(F)(F)F)ccc32)cn1 [Example 201, (S)-4-amino-7-fluoro-N-(1-methyl-1H-pyrazol-4-yl)-N-(6-(trifluoromethyl)-2,3-dihydrobenzofuran-3-yl)-1,3-dihydrofuro[3,4-c]quinolin-8-carboxamide]"
36,2,"C[C@H]1OCc2c1c(N)nc1cc(F)c(C(=O)N(c3cnn(C)c3)[C@@H]3COc4cc(C(F)(F)F)ccc43)cc21 [Example 202, (R)-4-amino-7-fluoro-3-methyl-N-(1-methyl-1H-pyrazol-4-yl)-N-((S)-6-(trifluoromethyl)-2,3-dihydrobenzofuran-3-yl)-1,3-dihydrofuro[3,4-c]quinolin-8-carboxamide]"
104,9,"Cn1ncc2c(N)nc3cc(F)c(C(=O)N(c4cnsc4)[C@@H]4CCc5cc(C(F)(F)F)ccc54)cc3c21 [Example 203, (R)-4-amino-7-fluoro-N-(isothiazol-4-yl)-1-methyl-N-(5-(trifluoromethyl)-2,3-dihydro-1H-inden-1-yl)-1H-pyrazolo[4,3-c]quinolin-8-carboxamide]"
293,6,"Nc1nc2ccc(C(=O)N(c3cnsc3)[C@@H]3CCc4cc(C(F)(F)F)ccc43)cc2c2cnccc12 [Example 204, (R)-5-amino-N-(isothiazol-4-yl)-N-(5-(trifluoromethyl)-2,3-dihydro-1H-inden-1-yl)benzo[c][2,6]naphthyridin-9-carboxamide]"
64,0.8,"Cn1cc(N(C(=O)c2cc3c(cc2F)nc(N)c2cnn(C)c23)[C@@H]2COc3cc(C(F)(F)F)ccc32)cn1 [Example 205, (S)-4-amino-7-fluoro-1-methyl-N-(1-methyl-1H-pyrazol-4-yl)-N-(6-(trifluoromethyl)-2,3-dihydrobenzofuran-3-yl)-1H-pyrazolo[4,3-c]quinolin-8-carboxamide]"
8470,82,"Cn1cc(N(C(=O)c2cc3c(cc2F)nc(N)c2cnn(C)c23)[C@H]2COc3cc(C(F)(F)F)ccc32)cn1 [Example 206, (R)-4-amino-7-fluoro-1-methyl-N-(1-methyl-1H-pyrazol-4-yl)-N-(6-(trifluoromethyl)-2,3-dihydrobenzofuran-3-yl)-1H-pyrazolo[4,3-c]quinolin-8-carboxamide]"
130,4,"C[C@H]1OCc2c1c(N)nc1cc(F)c(C(=O)N(c3cnn(C)c3)[C@@H]3COc4nc(C(F)(F)F)ccc43)cc21 [Example 208, (R)-4-amino-7-fluoro-3-methyl-N-(1-methyl-1H-pyrazol-4-yl)-N-((S)-6-(trifluoromethyl)-2,3-dihydrofuro[2,3-b]pyridin-3-yl)-1,3-dihydrofuro[3,4-c]quinolin-8-carboxamide]"
279,4,"Cn1cc(N(C(=O)c2cc3c4c(c(N)nc3cc2F)COC4)[C@@H]2COc3nc(C(F)(F)F)ccc32)cn1 [Example 209, (S)-4-amino-7-fluoro-N-(1-methyl-1H-pyrazol-4-yl)-N-(6-(trifluoromethyl)-2,3-dihydrofuro[2,3-b]pyridin-3-yl)-1,3-dihydrofuro[3,4-c]quinolin-8-carboxamide]"
7400,63,"Nc1nc2ccc(C(=O)N(c3ncccn3)C3CCc4cc(C(F)(F)F)ccc43)cc2c2cnccc12 (stereo not drawn) [Example 210, 5-amino-N-(pyrimidin-2-yl)-N-(5-(trifluoromethyl)-2,3-dihydro-1H-inden-1-yl)benzo[c][2,6]naphthyridin-9-carboxamide]"
70,3,"Nc1nc2cc(F)c(C(=O)N(c3cscn3)[C@@H]3CCc4cc(C(F)(F)F)ccc43)cc2c2c1COC2 [Example 213, (R)-4-amino-7-fluoro-N-(thiazol-4-yl)-N-(5-(trifluoromethyl)-2,3-dihydro-1H-inden-1-yl)-1,3-dihydrofuro[3,4-c]quinolin-8-carboxamide]"
335,17,"Cn1cc(N(C(=O)c2cc3c4c(c(N)nc3cc2F)COC4)[C@@H]2CCc3cc(C(F)(F)F)ccc32)cn1 [Example 220, (R)-4-amino-7-fluoro-N-(1-methyl-1H-pyrazol-4-yl)-N-(5-(trifluoromethyl)-2,3-dihydro-1H-inden-1-yl)-1,3-dihydrofuro[3,4-c]quinolin-8-carboxamide]"
1340,88,"C[C@H](c1ncccn1)N(C(=O)c1cc2c(cc1F)nc(N)c1cnn(C)c12)[C@@H]1CCc2cc(C(F)(F)F)ccc21 [Example 221, 4-amino-7-fluoro-1-methyl-N-((R)-1-(pyrimidin-2-yl)ethyl)-N-((R)-5-(trifluoromethyl)-2,3-dihydro-1H-inden-1-yl)-1H-pyrazolo[4,3-c]quinolin-8-carboxamide]"
